Marks after values point to notes of the source that are not given here. Ends that are not written are not given here.
Columns and labels:
IFNγ = assay: Inhibition of cytokine production in PHA-activated PBLs (ELISA); assay type: cell-based; conditions: human PBLs, 10 μg/ml PHA, 48 hours, supernatant ELISA
Description: (§1) Briefly, human PBLs are collected from a subject and plated at 10^6 cells/ml in serum free lymphocyte growth medium, stimulated with 10 μg/ml phytohemagglutinin (PHA) in the presence or absence of the candidate peptide. The PBLs are incubated at 37° C. at 5% CO2 for 48 h, at which point the supernatants were collected. An ELISA is performed on the supernatants to detect a cytokine of interest (e.g., IL-1, TNF-α, IFN-γ) and the cells are incubated for another 72 h to measure proliferation (see, e.g., Sigusch et al., J. Periodontol. 69:1098, 1998).
(§2) Human peripheral blood lymphocytes (PBLs) were collected from a healthy adult […] and plated at 10^6 cells/ml in serum free lymphocyte growth media in a 96-well plate. The PBLs were stimulated with 10 μg/ml PHA in the presence or absence of test sample and incubated at 37° C. at 5% CO2 for 48 hours. Collected and pooled supernatants were stored at −20° C., then assayed with commercially available ELISA kits (Endogen and Biosource) and assayed for viability with LDH (Bochringer Mannheim). The cells remaining after supernatant removal were returned to the incubator and proliferation was determined at 72 hours by using AlamarBlue (Alamar Bioscience). Compounds were tested at 1, 10, 100 and 1000 μg/ml. The peptides were effective at inhibiting cytokine production and PBL proliferation (Table 4), which indicates these peptides can function as anti-inflammatory agents.

IL-10 = assay: as above; assay type: cell-based; conditions: human PBLs, 10 μg/ml PHA, 48 hours, supernatant ELISA
Description: as §1, §2

IL-12 = assay: as above; assay type: cell-based; conditions: human PBLs, 10 μg/ml PHA, 48 hours, supernatant ELISA
Description: as §1, §2

IL-1α = assay: as above; assay type: cell-based; conditions: human PBLs, 10 μg/ml PHA, 48 hours, supernatant ELISA
Description: as §1, §2

IL-2 = assay: as above; assay type: cell-based; conditions: human PBLs, 10 μg/ml PHA, 48 hours, supernatant ELISA
Description: as §1, §2

IL-4 = assay: as above; assay type: cell-based; conditions: human PBLs, 10 μg/ml PHA, 48 hours, supernatant ELISA
Description: as §1, §2

IL-6 = assay: as above; assay type: cell-based; conditions: human PBLs, 10 μg/ml PHA, 48 hours, supernatant ELISA
Description: as §1, §2

TNFα = assay: as above; assay type: cell-based; conditions: human PBLs, 10 μg/ml PHA, 48 hours, supernatant ELISA
Description: as §1, §2

[1] = system: oxazolone contact hypersensitivity (ear inflammation); assay: Oxazolone contact hypersensitivity model; assay type: in vivo, CD-1 mice; conditions: Dosage of 0.1%, applied to ear one hour after oxazolone challenge, ear punch weight after 24 h, 70% EtOH/30% propylene glycol vehicle
Description: Briefly, a 3.0% (w/v) solution of oxazolone in acetone/corn oil (5:1) is applied topically to the skin on the shaved abdomens of mice of approximately the same weight and approximately the same age on day 0. […] Twenty-four hours later a dermal biopsy punch of the treated ear is taken and weighed.
CD-1 mice are treated with 3% oxazolone (Sigma) (30 mg/ml) in corn oil:acetone on a shaved abdomen. All solutions are sonicated for 7 minutes. Five days later, the mice are challenged with a 2% oxazolone (20 mg/ml) in acetone on the left ear, with the right ear being left untreated (control). One hour after challenge, the candidate peptide in a 70% EtOH/30% propylene glycol formulation (vehicle) was applied to the left ear, with the right ear being left untreated. After 24 h, 7 mm ear punches are taken from each ear of the mice. The ear punches are placed on a scale and the difference between the treated and untreated ears were compared. The percent inhibition of inflammation was calculated by comparing the mean of each treated group to the control group. The positive control is hydrocortisone (a known anti-inflammatory agent). Most of the indolicidin peptides inhibited inflammation as well as hydrocortisone.

TPA-induced ear edema = assay: TPA ear edema model; conditions: for Topical Dose (% change vs. vehicle) 1.0%: topical 1.0%; for Topical Dose (% change vs. vehicle) 1.0% / Topical Dose (% change vs. vehicle) 5 0% / Topical Dose (% change vs. vehicle) 0.1%: ear biopsy weight six hours after TPA; for Topical Dose (% change vs. vehicle) 0.1%: topical 0.1%
[2] = topical 5.0%, formulated in 95% ethanol
[3] = topical 5 0%, formulated in 50% ethanol/5 mM lactate buffer (*)
[4] = formulated in 50% ethanol/5 mM lactate buffer (*)

WRWWKPKWRWPKW-NH2 [Peptide 11J02CN, W R W W K P K W R W P K W]
IC50 IFNγ (IFNγ): 45 µg/mL | IC50 IL-10 (IL-10): 23 µg/mL | IC50 IL-12 (IL-12): 34 µg/mL | IC50 IL-1α (IL-1α): 7 µg/mL | IC50 IL-2 (IL-2): >1000 µg/mL | IC50 IL-4 (IL-4): 115 µg/mL | IC50 IL-6 (IL-6): 510 µg/mL | IC50 TNFα (TNFα): 34 µg/mL | % Inhibition of Inflammation [1]: 58.12% | Topical Dose (% change vs. vehicle) 1.0% (TPA-induced ear edema; formulated in 95% ethanol): −44%

F R F F K P K F R F P K F (FRFFKPKFRFPKF-{CN}) [Peptide 11J33CN]
Topical Dose (% change vs. vehicle) 1.0% (TPA-induced ear edema; formulated in 95% ethanol): −52%

R L W V V V V W R R (RLWVVVVWRR-{CN}) [Peptide 11F65CN]
Systemic Dose (% change vs. vehicle) 5 mg/kg (TPA-induced ear edema; systemic 5 mg/kg): −15% | Topical Dose (% change vs. vehicle) 1.0% (TPA-induced ear edema; formulated in 95% ethanol): −94%

R L W W Q Q W W R R (RLWWQQWWRR-{CN}) [Peptide 11F60CN]
Topical Dose (% change vs. vehicle) 1.0% (TPA-induced ear edema; formulated in 95% ethanol): −41%

WRWWKVAWRWVKW-NH2 [Peptide 11J30CN, W R W W K V A W R W V K W]
IC50 IFNγ (IFNγ): 28 µg/mL | IC50 IL-10 (IL-10): 33 µg/mL | IC50 IL-12 (IL-12): 26 µg/mL | IC50 IL-1α (IL-1α): 25 µg/mL | IC50 IL-2 (IL-2): >1000 µg/mL | IC50 IL-4 (IL-4): 65 µg/mL | IC50 IL-6 (IL-6): 4 µg/mL | IC50 TNFα (TNFα): 36 µg/mL | % Inhibition of Inflammation [1]: 94.15% | Topical Dose (% change vs. vehicle) 1.0% (TPA-induced ear edema; formulated in 95% ethanol): −26%

ILRWVWWVWRRK-NH2 [Peptide 11F4CN, I L R W V W W V W R R K]
Topical Dose (% change vs. vehicle) 1.0% (TPA-induced ear edema; formulated in 95% ethanol): −55%

I L Q W P W W P W Q Q Q (ILQWPWWPWQQQ-{CN}) [Peptide 11B38CN]
Topical Dose (% change vs. vehicle) 1.0% (TPA-induced ear edema; formulated in 95% ethanol): −8% | Topical Dose (% change vs. vehicle) 5 0% (TPA-induced ear edema; [2]): −51%

R L G G G G G G R R (RLGGGGGGRR-{CN}) [Peptide 11F83CN]
Topical Dose (% change vs. vehicle) 1.0% (TPA-induced ear edema; formulated in 95% ethanol): −28%

H-RILRW(Aib)WRILR-CN [Peptide 11J157CN]
Topical Dose (% change vs. vehicle) 0.1% (TPA-induced ear edema; formulated in 95% ethanol): +5% | Topical Dose (% change vs. vehicle) 1.0% (TPA-induced ear edema; formulated in 95% ethanol): −55%

H-ILRWVWRILR-CN (H-ILRWVWRILR-{CN}; not fully specified) [Peptide 11J131CN]
Topical Dose (% change vs. vehicle) 0.1% (TPA-induced ear edema; formulated in 95% ethanol): −20% | Topical Dose (% change vs. vehicle) 1.0% (TPA-induced ear edema; formulated in 95% ethanol): −43%

I L E E W P W W P W E E E (ILEEWPWWPWEEE-{CN}) [Peptide 11B11CN]
Topical Dose (% change vs. vehicle) 5 0% (TPA-induced ear edema; [3]): −64* %

RLVVWVVWRR-NH2 [Peptide 11F66CN, R L V V W V V W R R]
IC50 IFNγ (IFNγ): 125 µg/mL | IC50 IL-10 (IL-10): 40 µg/mL | IC50 IL-12 (IL-12): 280 µg/mL | IC50 IL-1α (IL-1α): >1000 µg/mL | IC50 IL-2 (IL-2): 480 µg/mL | IC50 IL-4 (IL-4): >1000 µg/mL | IC50 IL-6 (IL-6): 1 µg/mL | IC50 TNFα (TNFα): 110 µg/mL | % Inhibition of Inflammation [1]: 79.85% | Topical Dose (% change vs. vehicle) 0.1% (TPA-induced ear edema; [4]): −17* % | Topical Dose (% change vs. vehicle) 1.0% (TPA-induced ear edema; [4]): −64* % | Topical Dose (% change vs. vehicle) 5 0% (TPA-induced ear edema; [3]): −81* %

H-GWRFLKLAWRFLKL-OH [Peptide 11J97]
Topical Dose (% change vs. vehicle) 0.1% (TPA-induced ear edema; formulated in 95% ethanol): +33% | Topical Dose (% change vs. vehicle) 1.0% (TPA-induced ear edema; formulated in 95% ethanol): −29% | Topical Dose (% change vs. vehicle) 5 0% (TPA-induced ear edema; [2]): −49%

C[C@]12CCC(=O)C=C1CC[C@@H]1[C@@H]2[C@@H](O)C[C@@]2(C)[C@H]1CC[C@]2(O)C(=O)CO [Hydrocortisone, hydrocortisone, reference compound]
% Inhibition of Inflammation [1]: 84.92%

L R F L K W A F R L W K L (LRFLKWAFRLWKL-{CN}) [Peptide 11J45CN]
Topical Dose (% change vs. vehicle) 1.0% (TPA-induced ear edema; formulated in 95% ethanol): −69%

Y R Y Y K P K Y R Y P K Y (YRYYKPKYRYPKY-{CN}) [Peptide 11J32CN]
Topical Dose (% change vs. vehicle) 1.0% (TPA-induced ear edema; formulated in 95% ethanol): −30%

RLVVWVVWRRX-OH [Peptide 11F110]
Topical Dose (% change vs. vehicle) 0.1% (TPA-induced ear edema; [4]): −45* % | Topical Dose (% change vs. vehicle) 1.0% (TPA-induced ear edema; [4]): −83* % | Topical Dose (% change vs. vehicle) 5 0% (TPA-induced ear edema; [3]): −87* %

From patent US8933029B2, “Antimicrobial and anti-inflammatory peptides” (Carrus Capital Corporation, priority 2001, dated 2015)
